# Results published in US9067934B2, “Bicyclic pyridinones” (Pfizer Inc., priority 2011, dated 2015).
# pIC50: −log10 of the molar value.
# System: production of amyloid beta protein Aβ(1-42) (γ-secretase) in human WT-APP overexpressing CHO cells
# Assay: Cell-Based γ-Secretase Assay with ELISA Readout
# Settings: human WT-APP overexpressing CHO cells, ~24 hours at 37° C., Aβ(1-42) ELISA; footnotes: a = geometric mean of >15 determinations, b = single determination, c = geometric mean of 7-15 determinations; read-out: Aβ 42B IC50 (Geometric Mean of 2-6 Determinations)
# Method: Cell-Based γ-Secretase Assay with ELISA Readout
# The ability of compounds to modulate production of amyloid beta protein Aβ(1-42) was determined using human WT-APP overexpressing CHO cells. Cells were plated at 22,000 cells/100 μL well in 96 well tissue culture treated, clear plates (Falcon) in DMEM/F12 based medium and incubated for 24 hours at 37° C. Compounds for testing were diluted in 100% DMSO to achieve an eleven points, half log, dose response for IC50 determinations. Compounds were added in fresh medium to achieve 1% final DMSO. Appropriate vehicle or inhibitor controls were added into control wells individually to obtain minimum or maximum inhibition values, respectively, for the assay signal window before the plates were incubated for ˜24 hours at 37° C. This procedure produces conditioned media in each well which is tested for Aβ(1-42) levels in the ELISA detection step described next. The remaining cell cultures in each well are also tested for cell toxicity as described below.
# Coating of ELISA assay plates was initiated by addition of 50 μL/well of an in-house Aβ(1-42) specific antibody at (3 μg/mL) in 0.1 M NaHCO3 (pH 9.0) into black 384-well Maxisorp® plates (Nunc) and incubated overnight at 4° C. The capture antibody was then aspirated from the ELISA assay plates and plates were washed 4×100 μL with Wash Buffer (Dulbecco's PBS, 0.05% Tween 20). 90 μL/well of Blocking Buffer (Dulbecco's PBS, 1.0% BSA (Sigma A7030)) was then added to plates. Ambient temperature incubation was allowed to proceed for a minimum of two hours. Blocking buffer was then removed and 20 μL/well Assay Buffer (Dulbecco's PBS, 1.0% BSA (Sigma A7030), 0.05% Tween 20) was then added. At this point, 40 μL (in duplicate) of experimental conditioned media (described above) were transferred into wells of the blocked ELISA plates containing the capture antibody, followed by overnight incubation at 4° C. Cell toxicity was also measured in the corresponding remaining cells after removal of the conditioned media for the Aβ(1-42) assay by a colorimetric cell proliferation assay (CellTiter 96® AQueous One Solution Cell Proliferation Assay, Promega) according to the manufacturer's instructions.
# After overnight incubation of the ELISA assay plates at 4° C., unbound Aβ peptides were removed via (4×100 μL) washes with Wash Buffer. Europium (Eu) labeled (custom labeled, Perkin Elmer) Aβ(1-16) 6e10 Monoclonal Antibody (Covance #SIG-39320) was added, (50 μL/well Eu-6e10 @ 1:10,000, 20 uM EDTA) in Assay Buffer. Incubation at ambient temperature for a minimum of 2 hours was followed by (4×100 μL) washes with Wash Buffer, before 30 μL/well of Delfia Enhancement Solution (Perkin Elmer) was added. Following an one hour ambient temperature incubation, the plates were read on an EnVision plate reader (Perkin Elmer) using standard DELFIA TRF settings. Data analysis including inhibitory IC50 determination was performed using nonlinear regression fit analysis (in-house software) and the appropriate plate mean values for the maximum and minimum inhibition controls.
row,Compound,pIC50
1,"Cc1cn(-c2ccc3n(c2=O)CCN(C(C)C(C)Oc2ccccc2S(F)(F)(F)(F)F)C3=O)cn1 (single isomer, unassigned) [Example 124, 7-(4-methyl-1H-imidazol-1-yl)-2-{3-[2-(pentafluoro-λ^6-sulfanyl)phenoxy]butan-2-yl}-3,4-dihydro-2H-pyrido[1,2-a]pyrazine-1,6-dione]",5.64
2,"Cc1cn(-c2ccc3n(c2=O)CCN(C(C)C(C)Oc2ccccc2S(F)(F)(F)(F)F)C3=O)cn1 (single isomer, unassigned) [Example 125, 7-(4-methyl-1H-imidazol-1-yl)-2-{3-[2-(pentafluoro-λ^6-sulfanyl)phenoxy]butan-2-yl}-3,4-dihydro-2H-pyrido[1,2-a]pyrazine-1,6-dione]",6.19
3,"Cc1cn(-c2ccc3n(c2=O)CCN(C(C)C(C)Oc2ccccc2S(F)(F)(F)(F)F)C3=O)cn1 (single isomer, unassigned) [Example 126, 7-(4-methyl-1H-imidazol-1-yl)-2-{3-[2-(pentafluoro-λ^6-sulfanyl)phenoxy]butan-2-yl}-3,4-dihydro-2H-pyrido[1,2-a]pyrazine-1,6-dione]",7.70
4,"Cc1cn(-c2ccc3n(c2=O)CCN(C(C)C(C)Oc2ccccc2S(F)(F)(F)(F)F)C3=O)cn1 (single isomer, unassigned) [Example 127, 7-(4-methyl-1H-imidazol-1-yl)-2-{3-[2-(pentafluoro-λ^6-sulfanyl)phenoxy]butan-2-yl}-3,4-dihydro-2H-pyrido[1,2-a]pyrazine-1,6-dione]",5.97
5,"Cc1cn(-c2ccc3n(c2=O)CCN(CCOc2ccc(F)cc2C(F)(F)F)C3=O)cn1 [Example 1, 2-{2-[4-Fluoro-2-(trifluoromethyl)phenoxy]ethyl}-7-(4-methyl-1H-imidazol-1-yl)-3,4-dihydro-2H-pyrido[1,2-a]pyrazine-1,6-dione]",6.59
6,"Cc1ncc(-c2ccc3n(c2=O)CCN(CCOc2cccc4ccc(F)cc24)C3=O)o1 [Example 2, 2-{2-[(7-Fluoronaphthalen-1-yl)oxy]ethyl}-7-(2-methyl-1,3-oxazol-5-yl)-3,4-dihydro-2H-pyrido[1,2-a]pyrazine-1,6-dione]",6.36
7,"Cc1cn(-c2ccc3n(c2=O)CCN(CCOc2cccc4ccccc24)C3=O)cn1 [Example 3, 7-(4-methyl-1H-imidazol-1-yl)-2-[2-(1-naphthyloxy)ethyl]-3,4-dihydro-2H-pyrido[1,2-a]pyrazine-1,6-dione]",7.07
8,"Cc1cn(-c2ccc3n(c2=O)CCN(CC(C)(C)Oc2cccc(Cl)c2Cl)C3=O)cn1 [Example 4, 2-[2-(2,3-dichlorophenoxy)-2-methylpropyl]-7-(4-methyl-1H-imidazol-1-yl)-3,4-dihydro-2H-pyrido[1,2-a]pyrazine-1,6-dione]",6.84
9,"Cc1cn(-c2ccc3n(c2=O)CCN(CC(C)Oc2ccc(C(F)(F)F)cc2)C3=O)cn1 (stereo not shown) [Example 5, 7-(4-methyl-1H-imidazol-1-yl)-2-{2-[4-(trifluoromethyl)phenoxy]propyl}-3,4-dihydro-2H-pyrido[1,2-a]pyrazine-1,6-dione]",6.00
10,"Cc1cn(-c2ccc3n(c2=O)CCN(CCOc2ccc(Cl)c4ccccc24)C3=O)cn1 [Example 6, 2-{2-[(4-chloro-1-naphthyl)oxy]ethyl}-7-(4-methyl-1H-imidazol-1-yl)-3,4-dihydro-2H-pyrido[1,2-a]pyrazine-1,6-dione]",7.44
11,"COc1ccc2cccc(OCCN3CCn4c(ccc(-n5cnc(C)c5)c4=O)C3=O)c2c1 [Example 7, 2-{2-[(7-methoxy-1-naphthyl)oxy]ethyl}-7-(4-methyl-1H-imidazol-1-yl)-3,4-dihydro-2H-pyrido[1,2-a]pyrazine-1,6-dione]",7.38
12,"COc1ccc(OCCN2CCn3c(ccc(-n4cnc(C)c4)c3=O)C2=O)c2ccccc12 [Example 8, 2-{2-[(4-methoxy-1-naphthyl)oxy]ethyl}-7-(4-methyl-1H-imidazol-1-yl)-3,4-dihydro-2H-pyrido[1,2-a]pyrazine-1,6-dione]",7.03
13,"Cc1cn(-c2ccc3n(c2=O)CCN(CCOc2ccc(Cl)c4c2CCC4)C3=O)cn1 [Example 9, 2-{2-[(7-chloro-2,3-dihydro-1H-inden-4-yl)oxy]ethyl}-7-(4-methyl-1H-imidazol-1-yl)-3,4-dihydro-2H-pyrido[1,2-a]pyrazine-1,6-dione]",7.08
14,"Cc1cn(-c2ccc3n(c2=O)CCN(CCOc2cc(Cl)cc(Cl)c2Cl)C3=O)cn1 [Example 10, 7-(4-methyl-1H-imidazol-1-yl)-2-[2-(2,3,5-trichlorophenoxy)ethyl]-3,4-dihydro-2H-pyrido[1,2-a]pyrazine-1,6-dione]",6.90
15,"Cc1cn(-c2ccc3n(c2=O)CCN(CCOc2ccc(F)c4occc24)C3=O)cn1 [Example 11, 2-{2-[(7-fluoro-1-benzofuran-4-yl)oxy]ethyl}-7-(4-methyl-1H-imidazol-1-yl)-3,4-dihydro-2H-pyrido[1,2-a]pyrazine-1,6-dione]",6.27
16,"Cc1cn(-c2ccc3n(c2=O)CCN(CCOc2ccc(Cl)c(C(F)(F)F)c2)C3=O)cn1 [Example 12, 2-{2-[4-chloro-3-(trifluoromethyl)phenoxy]ethyl}-7-(4-methyl-1H-imidazol-1-yl)-3,4-dihydro-2H-pyrido[1,2-a]pyrazine-1,6-dione]",6.71
17,"Cc1cn(-c2ccc3n(c2=O)CCN(CCOc2ccccc2C(C)(C)C)C3=O)cn1 [Example 13, 2-[2-(2-tert-butylphenoxy)ethyl]-7-(4-methyl-1H-imidazol-1-yl)-3,4-dihydro-2H-pyrido[1,2-a]pyrazine-1,6-dione]",6.97
18,"Cc1cn(-c2ccc3n(c2=O)CCN(CCOc2cccc4c2CCCC4)C3=O)cn1 [Example 14, 7-(4-methyl-1H-imidazol-1-yl)-2-[2-(5,6,7,8-tetrahydronaphthalen-1-yloxy)ethyl]-3,4-dihydro-2H-pyrido[1,2-a]pyrazine-1,6-dione]",6.71
19,"Cc1cn(-c2ccc3n(c2=O)CCN(CCOc2ccccc2OC(F)(F)F)C3=O)cn1 [Example 15, 7-(4-methyl-1H-imidazol-1-yl)-2-{2-[2-(trifluoromethoxy)phenoxy]ethyl}-3,4-dihydro-2H-pyrido[1,2-a]pyrazine-1,6-dione]",6.56
20,"Cc1cn(-c2ccc3n(c2=O)CCN(CCOc2cccc4c2CCC4)C3=O)cn1 [Example 16, 2-[2-(2,3-dihydro-1H-inden-4-yloxy)ethyl]-7-(4-methyl-1H-imidazol-1-yl)-3,4-dihydro-2H-pyrido[1,2-a]pyrazine-1,6-dione]",6.63
21,"Cc1ccc(OCCN2CCn3c(ccc(-n4cnc(C)c4)c3=O)C2=O)c(Cl)c1 [Example 17, 2-[2-(2-chloro-4-methylphenoxy)ethyl]-7-(4-methyl-1H-imidazol-1-yl)-3,4-dihydro-2H-pyrido[1,2-a]pyrazine-1,6-dione]",6.82
22,"Cc1cn(-c2ccc3n(c2=O)CCN(CCOc2cccc(-c4ccccc4)c2)C3=O)cn1 [Example 18, 2-[2-(biphenyl-3-yloxy)ethyl]-7-(4-methyl-1H-imidazol-1-yl)-3,4-dihydro-2H-pyrido[1,2-a]pyrazine-1,6-dione]",6.82
23,"Cc1cn(-c2ccc3n(c2=O)CCN(CCOc2cccc(Oc4ccccc4)c2)C3=O)cn1 [Example 19, 7-(4-methyl-1H-imidazol-1-yl)-2-[2-(3-phenoxyphenoxy)ethyl]-3,4-dihydro-2H-pyrido[1,2-a]pyrazine-1,6-dione]",6.69
24,"Cc1cn(-c2ccc3n(c2=O)CCN(CCOc2cccc(C(F)(F)F)c2Cl)C3=O)cn1 [Example 20, 2-{2-[2-chloro-3-(trifluoromethyl)phenoxy]ethyl}-7-(4-methyl-1H-imidazol-1-yl)-3,4-dihydro-2H-pyrido[1,2-a]pyrazine-1,6-dione]",6.80
25,"Cc1cn(-c2ccc3n(c2=O)CCN(CCOc2ccc(F)cc2C2CC2)C3=O)cn1 [Example 21, 2-[2-(2-cyclopropyl-4-fluorophenoxy)ethyl]-7-(4-methyl-1H-imidazol-1-yl)-3,4-dihydro-2H-pyrido[1,2-a]pyrazine-1,6-dione]",6.58
